# Laboratory results from ChEMBL document CHEMBL3885861, “Open TG-GATES”.
# Species on record: Rattus norvegicus
# Test: Open TG-GATES - Regimen: Single
# Assay type: toxicity, organism-based, Sprague-Dawley
# Parameters: regimen Single, gender Male, age 6 weeks
# Settings: in vivo, po, route gavage; for TP / gamma-GTP / A/G / ALP / ALT / AST / BUN / CRE / Ca / Cl / DBIL / GLC / IP / K / LDH / Na / PL / RALB / TBIL / TC / TG: tissue Plasma; for APTT / Bas / Eos / Fbg / Hb / Ht / Lym / MCH / MCHC / MCV / Mono / Neu / PT / Plat / RBC / Ret / WBC: tissue Blood; for KIDNEY_L / KIDNEY_R / KIDNEY_TOTAL: tissue Kidney; for LIVER: tissue Liver
# [1] = 2 mg/kg, 3 h, dose level Middle
# [2] = 2 mg/kg, 6 h, dose level Middle
# [3] = 2 mg/kg, 9 h, dose level Middle
smiles,measurement,setting,value
COc1ccc2c(c1)c(CC(=O)O)c(C)n2C(=O)c1ccc(Cl)cc1 [INDOMETHACIN],TP,"1 mg/kg, 9 h, dose level Low",5.3 g/dL
same,gamma-GTP,"1 mg/kg, 9 h, dose level Low",1.4 IU/L
same,TERMINAL_BW,"1 mg/kg, 24 h, dose level Low",215.2 g
same,APTT,"1 mg/kg, 24 h, dose level Low",16.8 s
same,Bas,"1 mg/kg, 24 h, dose level Low",0%
same,Eos,"1 mg/kg, 24 h, dose level Low",0.8%
same,Fbg,"1 mg/kg, 24 h, dose level Low",198.2 mg/dL
same,Hb,"1 mg/kg, 24 h, dose level Low",13.5 g/dL
same,Ht,"1 mg/kg, 24 h, dose level Low",40.7%
same,Lym,"1 mg/kg, 24 h, dose level Low",79%
same,MCH,"1 mg/kg, 24 h, dose level Low",21.8 pg
same,MCHC,"1 mg/kg, 24 h, dose level Low",33.2%
same,MCV,"1 mg/kg, 24 h, dose level Low",65.6 fL
same,Mono,"1 mg/kg, 24 h, dose level Low",8.8%
same,Neu,"1 mg/kg, 24 h, dose level Low",11.4%
same,PT,"1 mg/kg, 24 h, dose level Low",12.3 s
same,Plat,"1 mg/kg, 24 h, dose level Low",112.3 x10_4/uL
same,RBC,"1 mg/kg, 24 h, dose level Low",620.8 x10_4/ul
same,Ret,"1 mg/kg, 24 h, dose level Low",9%
same,WBC,"1 mg/kg, 24 h, dose level Low",118.2 x10_2/uL
same,KIDNEY_L,"1 mg/kg, 24 h, dose level Low",1 g
same,KIDNEY_R,"1 mg/kg, 24 h, dose level Low",1 g
same,KIDNEY_TOTAL,"1 mg/kg, 24 h, dose level Low",1.9 g
same,LIVER,"1 mg/kg, 24 h, dose level Low",10.2 g
same,A/G,"1 mg/kg, 24 h, dose level Low",2.2
same,ALP,"1 mg/kg, 24 h, dose level Low",1141.2 IU/L
same,ALT,"1 mg/kg, 24 h, dose level Low",41.2 IU/L
same,AST,"1 mg/kg, 24 h, dose level Low",71 IU/L
same,BUN,"1 mg/kg, 24 h, dose level Low",16.6 mg/dL
same,CRE,"1 mg/kg, 24 h, dose level Low",0.5 mg/dL
same,Ca,"1 mg/kg, 24 h, dose level Low",10.3 mg/dL
same,Cl,"1 mg/kg, 24 h, dose level Low",105.2 meq/L
same,DBIL,"1 mg/kg, 24 h, dose level Low",0.016 mg/dL
same,GLC,"1 mg/kg, 24 h, dose level Low",202.6 mg/dL
same,IP,"1 mg/kg, 24 h, dose level Low",8.6 mg/dL
same,K,"1 mg/kg, 24 h, dose level Low",5.1 meq/L
same,LDH,"1 mg/kg, 24 h, dose level Low",85 IU/L
same,Na,"1 mg/kg, 24 h, dose level Low",138.4 meq/L
same,PL,"1 mg/kg, 24 h, dose level Low",152.8 mg/dL
same,RALB,"1 mg/kg, 24 h, dose level Low",3.9 g/dL
same,TBIL,"1 mg/kg, 24 h, dose level Low",0.3 mg/dL
same,TC,"1 mg/kg, 24 h, dose level Low",88.4 mg/dL
same,TG,"1 mg/kg, 24 h, dose level Low",72 mg/dL
same,TP,"1 mg/kg, 24 h, dose level Low",5.7 g/dL
same,gamma-GTP,"1 mg/kg, 24 h, dose level Low",1 IU/L
same,TERMINAL_BW,[1],195.5 g
same,APTT,[1],17 s
same,Bas,[1],0%
same,Eos,[1],0.8%
same,Fbg,[1],215 mg/dL
same,Hb,[1],13.5 g/dL
same,Ht,[1],40.3%
same,Lym,[1],80.2%
same,MCH,[1],22.2 pg
same,MCHC,[1],33.5%
same,MCV,[1],66.2 fL
same,Mono,[1],8%
same,Neu,[1],11.4%
same,PT,[1],12.6 s
same,Plat,[1],109.7 x10_4/uL
same,RBC,[1],609.4 x10_4/ul
same,Ret,[1],10.3%
same,WBC,[1],99.3 x10_2/uL
same,KIDNEY_L,[1],0.9 g
same,KIDNEY_R,[1],0.9 g
same,KIDNEY_TOTAL,[1],1.8 g
same,LIVER,[1],8.7 g
same,A/G,[1],1.6
same,ALP,[1],1158.6 IU/L
same,ALT,[1],39.8 IU/L
same,AST,[1],74.4 IU/L
same,BUN,[1],10.6 mg/dL
same,CRE,[1],0.4 mg/dL
same,Ca,[1],10.3 mg/dL
same,Cl,[1],105.8 meq/L
same,DBIL,[1],0.056 mg/dL
same,GLC,[1],185.2 mg/dL
same,IP,[1],10 mg/dL
same,K,[1],4.8 meq/L
same,LDH,[1],99.4 IU/L
same,Na,[1],137.4 meq/L
same,PL,[1],125 mg/dL
same,RALB,[1],3.7 g/dL
same,TBIL,[1],0.4 mg/dL
same,TC,[1],72.2 mg/dL
same,TG,[1],40 mg/dL
same,TP,[1],6 g/dL
same,gamma-GTP,[1],1.2 IU/L
same,TERMINAL_BW,[2],199.6 g
same,APTT,[2],17 s
same,Bas,[2],0%
same,Eos,[2],0.8%
same,Fbg,[2],206.8 mg/dL
same,Hb,[2],13.3 g/dL
same,Ht,[2],40.2%
same,Lym,[2],81.2%
same,MCH,[2],21.6 pg
same,MCHC,[2],33.2%
same,MCV,[2],65.1 fL
same,Mono,[2],6.4%
same,Neu,[2],12%
same,PT,[2],12.5 s
same,Plat,[2],106.7 x10_4/uL
same,RBC,[2],617.8 x10_4/ul
same,Ret,[2],9.6%
same,WBC,[2],84.6 x10_2/uL
same,KIDNEY_L,[2],0.9 g
same,KIDNEY_R,[2],0.9 g
same,KIDNEY_TOTAL,[2],1.8 g
same,LIVER,[2],8.6 g
same,A/G,[2],1.8
same,ALP,[2],959 IU/L
same,ALT,[2],36.8 IU/L
same,AST,[2],75 IU/L
same,BUN,[2],10.6 mg/dL
same,CRE,[2],0.5 mg/dL
same,Ca,[2],10.1 mg/dL
same,Cl,[2],107 meq/L
same,DBIL,[2],0.036 mg/dL
same,GLC,[2],188.4 mg/dL
same,IP,[2],9.1 mg/dL
same,K,[2],4.9 meq/L
same,LDH,[2],91.4 IU/L
same,Na,[2],137.4 meq/L
same,PL,[2],120.8 mg/dL
same,RALB,[2],3.8 g/dL
same,TBIL,[2],0.3 mg/dL
same,TC,[2],73.4 mg/dL
same,TG,[2],38.6 mg/dL
same,TP,[2],5.9 g/dL
same,gamma-GTP,[2],2.2 IU/L
same,TERMINAL_BW,[3],198.4 g
same,APTT,[3],16.6 s
same,Bas,[3],0%
same,Eos,[3],0.6%
same,Fbg,[3],210 mg/dL
same,Hb,[3],13.1 g/dL
same,Ht,[3],39.8%
same,Lym,[3],79.6%
same,MCH,[3],21.8 pg
same,MCHC,[3],33%
same,MCV,[3],66.1 fL
same,Mono,[3],8.2%
same,Neu,[3],11.8%
same,PT,[3],12.4 s
same,Plat,[3],108.3 x10_4/uL
same,RBC,[3],602.2 x10_4/ul
same,Ret,[3],9.7%
